Laboratory results as given in US10821115B2, “Compounds that inhibit Mcl-1 protein” (priority 2017, dated 2020).
Like-named read-outs stand apart in the source and are kept apart here.

How the values were obtained:
[1] = biological target: recombinant human Mcl-1 (residues 171-327) / Bim interaction (Homo sapiens (Human), UniProt Q07820); assay: biochemical; format: binding; details: read-out: Mcl-1 HTRF IC50
[2] = tested on: human multiple myeloma cell line, OPM-2; assay: Cell viability assay (OPM-2 10 FBS), CellTiter-Glo; format: cell-based
How it was run: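 Cells were seeded at 3000 cells/well in RPMI 1640 with 10% FBS and exposed to serially diluted compounds for 16 h at 37 °C, 5% CO2.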

[3] = TR-FRET, Mcl-1(171-327) / biotin-Bim (51-76)
[4] = Homo sapiens, OPM-2, 16 h, read-out: OPM-2 10% FBS IC50 IP, OPM-2 cells, 10% FBS, 16 h, CellTiter-Glo
[5] = read-out: OPM-2 10% FBS IC50 IP, OPM-2 cells, 10% FBS, 16 h, CellTiter-Glo
[6] = 0.1 nM Mcl-1(171-327), 0.05 nM biotin-Bim (51-76)
[7] = read-out: OPM-2 10% FBS IC50 IP, OPM-2 cells, 10% FBS, 16 h incubation
[8] = Homo sapiens, OPM-2, 16 h, read-out: OPM-2 10% FBS IC50 IP, OPM-2 cells, 10% FBS, 16 h incubation

Sequence of recombinant human Mcl-1 (residues 171-327) / Bim interaction (Q07820 171-327): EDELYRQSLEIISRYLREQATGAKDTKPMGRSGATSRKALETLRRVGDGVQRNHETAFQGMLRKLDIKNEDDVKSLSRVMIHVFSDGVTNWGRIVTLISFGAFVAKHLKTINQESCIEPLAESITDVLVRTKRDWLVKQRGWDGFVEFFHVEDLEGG

## C[C@@H]1[C@@H](C)C/C=C/[C@](O)(C#N)[C@@H]2CC[C@H]2CN2C[C@@]3(CCCc4cc(Cl)ccc43)COc3ccc(cc32)C(=O)NS1(=O)=O [Example 100237, (1S,3′R,6′R,7′R,8′E,11′S,12′R)-6-chloro-7′-hydroxy-11′,12′-dimethyl-15′-oxo-3,4-dihydro-2H-spiro[naphthalene-1,22′-[20]oxa[13]thia[1,14]diazatetracyclo [14.7.2.0~3,6~.0~19,24~]pentacosa[8,16,18,24]tetraene]-7′-carbonitrile 13′,13′-dioxide]
[1]; [3]
  IC50: 1.74 nM
[2]; [4]
  IC50: 996 nM

## C[C@@H]1[C@@H](C)CCC[C@](C=O)(CN2CCOCC2)[C@@H]2CC[C@H]2CN2C[C@@]3(CCCc4cc(Cl)ccc43)COc3ccc(cc32)C(=O)NS1(=O)=O [Example 100337, (1S,3′R,6′R,7′R,11′S,12′R)-6-chloro-11′,12′-dimethyl-7′-(4-morpholinylmethyl)-15′-oxo-3,4-dihydro-2H-spiro[naphthalene-1,22′-[20]oxa[13]thia[1,14]diazatetracyclo [14.7.2.0~3,6~.0~19,24~]pentacosa[16,18,24]triene]-7′-carbaldehyde 13′,13′-dioxide]
[1]
  IC50: 1.61 nM
[2]; [4]
  IC50: 2410 nM

## C[C@@H]1[C@@H](C)CCC[C@@](O)(CC[S@@+](C)[O-])[C@@H]2CC[C@H]2CN2C[C@@]3(CCCc4cc(Cl)ccc43)COc3ccc(cc32)C(=O)NS1(=O)=O [Example 100329, (1S,3′R,6′R,7′R,11′S,12′R)-6-chloro-7′-hydroxy-11′,12′-dimethyl-7′-(2-((R)-methylsulfinyl)ethyl)-3,4-dihydro-2H,15′H-spiro[naphthalene-1,22′-[20]oxa[13]thia[1,14]diazatetracyclo [14.7.2.0~3,6~.0~19,24~]pentacosa[16,18,24]trien]-15′-one 13′,13′-dioxide]
[1]; [3]
  IC50: 5.02 nM
[2]; [4]
  IC50: 1560 nM

## C[C@@H]1[C@@H](C)CCC[C@@](O)(CC(=O)N2CCC2)[C@@H]2CC[C@H]2CN2C[C@@]3(CCCc4cc(Cl)ccc43)COc3ccc(cc32)C(=O)NS1(=O)=O [Example 100145, (1S,3′R,6′R,7′R,11′S,12′R)-7′-(2-(1-azetidinyl)-2-oxoethyl)-6-chloro-7′-hydroxy-11′,12′-dimethyl-3,4-dihydro-2H,15′H-spiro[naphthalene-1,22′-[20]oxa[13]thia[1,14]diazatetracyclo [14.7.2.0~3,6~.0~19,24~]pentacosa[16,18,24]trien]-15′-one 13′,13′-dioxide]
[1]; [3]
  IC50: 0.357 nM
[2]; [5]
  IC50: 945 nM

## C[C@@H]1[C@@H](C)C/C=C/[C@](O)(c2cccnc2F)[C@@H]2CC[C@H]2CN2C[C@@]3(CCCc4cc(Cl)ccc43)COc3ccc(cc32)C(=O)NS1(=O)=O (single isomer, unassigned) [Example 100313]
[1]; [3]
  IC50: 0.129 nM
[2]; [5]
  IC50: 143 nM

## CCO[C@]1(CN2CCN3CCS(=O)(=O)C[C@@H]3C2)/C=C/C[C@H](C)[C@@H](C)S(=O)(=O)NC(=O)c2ccc3c(c2)N(C[C@@H]2CC[C@H]21)C[C@@]1(CCCc2cc(Cl)ccc21)CO3 [Example 122]
[1]; [6]
  IC50: 0.087 nM
[2]; [7]
  IC50: 138 nM

## CCN(CC)C(=O)C[C@@]1(O)/C=C/C[C@H](C)[C@@H](C)S(=O)(=O)NC(=O)c2ccc3c(c2)N(C[C@@H]2CC[C@H]21)C[C@@]1(CCCc2cc(Cl)ccc21)CO3 (single isomer, unassigned) [Example 100084]
[1]; [3]
  IC50: 0.745 nM
[2]; [4]
  IC50: 1490 nM

## CC[C@@H]1CCCC[C@](O)(CO)[C@@H]2CC[C@H]2CN2C[C@@]3(CCCc4cc(Cl)ccc43)COc3ccc(cc32)C(=O)NS1(=O)=O [Example 100036, (1S,3′R,6′R,7′R,12′R)-6-chloro-12′-ethyl-7′-hydroxy-7′-(hydroxymethyl)-3,4-dihydro-2H,15′H-spiro[naphthalene-1,22′-[20]oxa[13]thia[1,14]diazatetracyclo [14.7.2.0~3,6~.0~19,24~]pentacosa[16,18,24]trien]-15′-one 13′,13′-dioxide]
[1]; [3]
  IC50: 0.889 nM
[2]; [4]
  IC50: 1980 nM

## CO[C@@]1(CC(=O)NCCCl)/C=C/C[C@H](C)[C@@H](C)S(=O)(=O)NC(=O)c2ccc3c(c2)N(C[C@@H]2CC[C@H]21)C[C@@]1(CCCc2cc(Cl)ccc21)CO3 [Example 100509, N-(2-chloroethyl)-2-((1S,3′R,6′R,7′S,8′E,11′S,12′R)-6-chloro-7′-methoxy-11′,12′-dimethyl-13′,13′-dioxido-15′-oxo-3,4-dihydro-2H-spiro[naphthalene-1,22′-[20]oxa[13]thia[1,14]diazatetracyclo [14.7.2.0~3,6~.0~19,24~]pentacosa[8,16,18,24]tetraen]-7′-yl)acetamide]
[1]; [3]
  IC50: 0.057 nM
[2]; [4]
  IC50: 361 nM

## COCC[C@@H]1[C@@H](C)C/C=C/[C@@](C=O)(OC)[C@@H]2CC[C@H]2CN2C[C@@]3(CCCc4cc(Cl)ccc43)COc3ccc(cc32)C(=O)NS1(=O)=O [Example 100571, (1S,3′R,6′R,7′R,8′E,11′S,12′R)-6-chloro-7′-methoxy-12′-(2-methoxyethyl)-11′-methyl-15′-oxo-3,4-dihydro-2H-spiro[naphthalene-1,22′-[20]oxa[13]thia[1,14]diazatetracyclo [14.7.2.0~3,6~.0~19,24~]pentacosa[8,16,18,24]tetraene]-7′-carbaldehyde 13′,13′-dioxide]
[1]; [3]
  IC50: 0.076 nM
[2]; [4]
  IC50: 922 nM

## C[C@@H]1[C@@H](C)C/C=C/[C@@](O)(CS(C)(=O)=O)[C@@H]2CC[C@H]2CN2C[C@@]3(CCCc4cc(Cl)ccc43)COc3ccc(cc32)C(=O)NS1(=O)=O [Example 100073, (1S,3′R,6′R,7′S,8′E,11′S,12′R)-6-chloro-7′-hydroxy-11′,12′-dimethyl-7′-((methylsulfonyl)methyl)-3,4-dihydro-2H,15′H-spiro[naphthalene-1,22′-[20]oxa[13]thia[1,14]diazatetracyclo [14.7.2.0~3,6~.0~19,24~]pentacosa[8,16,18,24]tetraen]-15′-one 13′,13′-dioxide]
[1]; [3]
  IC50: 0.346 nM
[2]; [5]
  IC50: 1200 nM

## CO[C@@]1(CCN2CCOCC2)/C=C/C[C@H](C)[C@@H](C)S(=O)(=O)NC(=O)c2ccc3c(c2)N(C[C@@H]2CC[C@H]21)C[C@@]1(CCCc2cc(Cl)ccc21)CO3 [Example 100419, (1S,3′R,6′R,7′S,8′E,11′S,12′R)-6-chloro-7′-methoxy-11′,12′-dimethyl-7′-(2-(4-morpholinyl)ethyl)-3,4-dihydro-2H,15′H-spiro[naphthalene-1,22′-[20]oxa[13]thia[1,14]diazatetracyclo [14.7.2.0~3,6~.0~19,24~]pentacosa[8,16,18,24]tetraen]-15′-one 13′,13′-dioxide]
[1]; [3]
  IC50: 0.277 nM
[2]; [4]
  IC50: 416 nM

## CO[C@@]1(CN2CCC=C(F)C2)/C=C/C[C@H](C)[C@@H](C)S(=O)(=O)NC(=O)c2ccc3c(c2)N(C[C@@H]2CC[C@H]21)C[C@@]1(CCCc2cc(Cl)ccc21)CO3 [Example 68, (1S,3′R,6′R,7′S,8′E,11′S,12′R)-6-chloro-7′-((5-fluoro-3,6-dihydro-1(2H)-pyridinyl)methyl)-7′-methoxy-11′,12′-dimethyl-3,4-dihydro-2H,15′H-spiro[naphthalene-1,22′-[20]oxa[13]thia[1,14]diazatetracyclo [14.7.2.0~3,6~.0~19,24~]pentacosa[8,16,18,24]tetraen]-15′-one 13′,13′-dioxide]
[1]; [6]
  IC50: 0.397 nM
[2]; [8]
  IC50: 1520 nM

## CO[C@]1(CN2CCN3CCN(S(C)(=O)=O)C[C@@H]3C2)/C=C/C[C@H](C)[C@@H](C)S(=O)(=O)NC(=O)c2ccc3c(c2)N(C[C@@H]2CC[C@H]21)C[C@@]1(CCCc2cc(Cl)ccc21)CO3 (single isomer, unassigned) [Example 238]
[1]; [6]
  IC50: 0.176 nM
[2]; [7]
  IC50: 76 nM

## CC[C@]1(CO)/C=C/C[C@H](C)[C@@H](C)S(=O)(=O)NC(=O)c2ccc3c(c2)N(C[C@@H]2CC[C@H]21)C[C@@]1(CCCc2cc(Cl)ccc21)CO3 (single isomer, unassigned) [Example 100605]
[1]; [3]
  IC50: 3.25 nM
[2]; [4]
  IC50: 7950 nM

## C[C@@H]1[C@@H](C)C/C=C/[C@@](CO)(OCC(F)(F)F)[C@@H]2CC[C@H]2CN2C[C@@]3(CCCc4cc(Cl)ccc43)COc3ccc(cc32)C(=O)NS1(=O)=O (single isomer, unassigned) [Example 100604]
[1]; [3]
  IC50: 0.723 nM
[2]; [4]
  IC50: 4110 nM

## C[C@H](C(=O)O)[C@@]1(O)/C=C/C[C@H](C)[C@@H](C)S(=O)(=O)NC(=O)c2ccc3c(c2)N(C[C@@H]2CC[C@H]21)C[C@@]1(CCCc2cc(Cl)ccc21)CO3 (single isomer, unassigned) [Example 100122]
[1]; [3]
  IC50: 0.098 nM
[2]; [5]
  IC50: 1190 nM

## C=CC[C@@]1(O)/C=C/C[C@H](C)[C@@H](C)S(=O)(=O)NC(=O)c2ccc3c(c2)N(C[C@@H]2CC[C@H]21)C[C@@]1(CCCc2cc(Cl)ccc21)CO3 (stereo in doubt) [Example 100127]
[1]; [3]
  IC50: 0.175 nM
[2]; [5]
  IC50: 108 nM

## CO[C@]1(CN2CCN3CCOC[C@@H]3C2)/C=C/C[C@H](C)[C@@H](C)S(=O)(=O)NC(=O)c2ccc3c(n2)N(C[C@@H]2CC[C@H]21)C[C@@]1(CCCc2cc(Cl)ccc21)CO3 [Example 185, (1S,3′R,6′R,7′R,8′E,11′S,12′R)-6-chloro-7′-((9aS)-hexahydropyrazino[2,1-c][1,4]oxazin-8(1H)-ylmethyl)-7′-methoxy-11′,12′-dimethyl-3,4-dihydro-2H,15′H-spiro[naphthalene-1,22′-[20]oxa[13]thia[1,14,25]triazatetracyclo [14.7.2.0~3,6~.0~19,24~]pentacosa[8,16,18,24]tetraen]-15′-one 13′,13′-dioxide]
[1]; [6]
  IC50: 0.17 nM
[2]; [8]
  IC50: 1060 nM
